For 28 compounds, IC50 results are on record in patent US20240400555A1 (Initial Therapeutics, Inc., priority 2023, published 2024).

The subject of the first assay is MV-4-11 cells. Nature of the assay: Cell Viability Assay in MV-4-11 Cells. Format: cell-based. Particulars: Homo sapiens, MV4-11, 72 h. A digest of the protocol: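 Luminescent ATP read-out (CellTiter-Glo) after 72 h compound treatment of MV-4-11 leukaemia cells (7,000 per well, IMDM plus 10% FBS). Values expressed relative to DMSO control and derived by four-parameter non-linear regression.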
By IC50 is commonly meant the point on the concentration scale where inhibition reaches its midpoint. `Cc1cccc2ccnc(N(C(=O)c3cccc(C#CCCC(=O)Nc4ccncc4)c3)[C@@H]3CCCNC3)c12` [Example 516, (R)—N-(8-methylisoquinolin-1-yl)-3-(5-oxo-5-(pyridin-4-ylamino)pent-1-yn-1-yl)-N-(piperidin-3-yl)benzamide] had an IC50 of 750 nM.

The assay is the same for the next values; noted with them: Homo sapiens, MV4-11, 72 h, MV-4-11 cells, 72 h, Cell-Titer Glo; read-out: IC50.
For `NC(=O)c1ccc(-c2cc3c(N(C(=O)c4ccc(-n5nnc6cccnc65)cc4F)[C@@H]4CCCNC4)nccc3s2)cc1` [Example 448, N-[2-(4-carbamoylphenyl)thieno[3,2-c]pyridin-4-yl]-2-fluoro-N-[(3R)-3-piperidyl]-4-(triazolo[4,5-b]pyridin-3-yl)benzamide], the IC50 was 52 nM.
`Cc1cc(Cl)cc2ccnc(N(C(=O)c3ccc(-c4nnn(C)c4C)cc3F)[C@@H]3CCCNC3)c12` [Example 763, (R)—N-(6-chloro-8-methylisoquinolin-1-yl)-4-(1,5-dimethyl-1H-1,2,3-triazol-4-yl)-2-fluoro-N-(piperidin-3-yl)benzamide]: the IC50 turned out to be 34 nM.
On to `Cc1cc(C)c2c(N(C(=O)c3ccc(-c4cn(C)nn4)cn3)[C@@H]3CCCNC3)nccc2c1` [Example 703, (R)—N-(6,8-dimethylisoquinolin-1-yl)-5-(1-methyl-1H-1,2,3-triazol-4-yl)-N-(piperidin-3-yl)picolinamide], for which the IC50 was determined as 60 nM.
In the case of `Cc1nnc(-c2ccc(C(=O)N(c3nccc4cc(Cl)cc(C)c34)[C@@H]3CCCNC3)cc2)s1` [Example 755, (R)—N-(6-chloro-8-methylisoquinolin-1-yl)-4-(5-methyl-1,3,4-thiadiazol-2-yl)-N-(piperidin-3-yl)benzamide], the half-maximal inhibitory concentration (IC50) was 87 nM.
In the case of `Cc1ccc(F)c2ccnc(N(C(=O)c3ccc(-c4cn(C)nn4)cc3)[C@@H]3CCCNC3)c12` [Example 656, (R)—N-(5-fluoro-8-methylisoquinolin-1-yl)-4-(1-methyl-1H-1,2,3-triazol-4-yl)-N-(piperidin-3-yl)benzamide], the IC50 stood at 180 nM.
As to `Cc1cc(Cl)cc2ccnc(N(C(=O)c3ccc(-c4cnn(C)c4C)cc3F)[C@@H]3CCCNC3)c12` [Example 814, (R)—N-(6-chloro-8-methylisoquinolin-1-yl)-4-(1,5-dimethyl-1H-pyrazol-4-yl)-2-fluoro-N-(piperidin-3-yl)benzamide], the IC50 worked out at 430 nM.
On to `NS(=O)(=O)c1cccc(-c2cc3c(N(C(=O)c4ccc(-n5nnc6cccnc65)cc4F)[C@@H]4CCCNC4)nccc3s2)c1` [Example 446, 2-fluoro-N-[(3R)-3-piperidyl]-N-[2-(3-sulfamoylphenyl)thieno[3,2-c]pyridin-4-yl]-4-(triazolo[4,5-b]pyridin-3-yl)benzamide], for which the IC50 was 1900 nM.
For `C#Cc1cc2c(N(C(=O)c3ccc(-n4nnc5cccnc54)cc3F)[C@@H]3CCCNC3)nccc2s1` [Example 382, N-(2-ethynylthieno[3,2-c]pyridin-4-yl)-2-fluoro-N-[(3R)-3-piperidyl]-4-(triazolo[4,5-b]pyridin-3-yl)benzamide], the IC50 was 640 nM.
For the compound `Cc1ccc(F)c2ccnc(N(C(=O)c3ccc(Nc4ncccn4)cc3F)[C@@H]3CCCNC3)c12` [Example 661, (R)-2-fluoro-N-(5-fluoro-8-methylisoquinolin-1-yl)-N-(piperidin-3-yl)-4-(pyrimidin-2-ylamino)benzamide], the IC50 was 170 nM.
Still for that read-out and setting: as for `O=C(c1ccc(-n2nnc3cccnc32)cc1F)N(c1nccc2cc(-c3nn[nH]c3CO)ccc12)[C@@H]1CCCNC1` [Example 530, (R)-4-(3H-[1,2,3]triazolo[4,5-b]pyridin-3-yl)-2-fluoro-N-(6-(5-(hydroxymethyl)-1H-1,2,3-triazol-4-yl)isoquinolin-1-yl)-N-(piperidin-3-yl)benzamide], the figure is 1600 nM.
For the compound `C=C(C)c1csc2ccnc(N(C(=O)c3ccc(-c4nnc(C)s4)cc3F)[C@@H]3CCCNC3)c12` [Example 651, 2-fluoro-N-(3-isopropenylthieno[3,2-c]686yridine-4-yl)-4-(5-methyl-1,3,4-thiadiazol-2-yl)-N-[(3R)-3-piperidyl]benzamide], the half-inhibitory concentration (IC50) worked out at 460 nM.
For `CN(C)C/C=C/C(=O)Nc1cccc(C2CCN(C(=O)N(c3nccc4ccn(C)c34)[C@@H]3CCCNC3)CC2)c1` [Example 304, (R,E)-4-(3-(4-(dimethylamino)but-2-enamido)phenyl)-N-(1-methyl-1H-pyrrolo[2,3-c]pyridin-7-yl)-N-(piperidin-3-yl)piperidine-1-carboxamide], the IC50 was determined as 37 nM.
As for `O=C(c1ccc(-n2nnc3cccnc32)cc1F)N(c1nccc2sc(-c3ccnc(F)c3)cc12)[C@@H]1CCCNC1` [Example 566, 2-fluoro-N-[2-(2-fluoro-4-pyridyl)thieno [3,2-c]pyridin-4-yl]-N-[(3R)-3-piperidyl]-4-(triazolo [4,5-b]pyridin-3-yl) benzamide], the IC50 was determined as 240 nM.
Turning to `CNC(=O)c1ccc(-c2cc3c(N(C(=O)c4ccc(-c5cn(C)nn5)cc4F)[C@@H]4CCCNC4)nccc3s2)cc1` [Example 521, (R)-2-fluoro-4-(1-methyl-1H-1,2,3-triazol-4-yl)-N-(2-(4-(methylcarbamoyl)phenyl)thieno[3,2-c]pyridin-4-yl)-N-(piperidin-3-yl)benzamide], the IC50 worked out at 760 nM.
Regarding `Cc1csc2ccnc(N(C(=O)c3ccc(Nc4ncccn4)cc3F)[C@@H]3CCCNC3)c12` [Example 468, (R)-2-fluoro-N-(3-methylthieno[3,2-c]pyridin-4-yl)-N-(piperidin-3-yl)-4-(pyrimidin-2-ylamino)benzamide], the IC50 worked out at 120 nM.
For `O=C(c1ccc(-n2nnc3cccnc32)cc1F)N(c1nccc2cc(-c3ccccn3)ccc12)[C@@H]1CCCNC1` [Example 556, (R)-4-(3H-[1,2,3]triazolo[4,5-b]pyridin-3-yl)-2-fluoro-N-(piperidin-3-yl)-N-(6-(pyridin-2-yl)isoquinolin-1-yl) benzamide], the IC50 worked out at 650 nM.
As for `CNC(=O)c1ccc2c(N(C(=O)c3ccc(-n4nnc5cccnc54)cc3F)[C@@H]3CCCNC3)nccc2c1` [Example 369, (R)-1-(4-(3H-[1,2,3]triazolo[4,5-b]pyridin-3-yl)-2-fluoro-N-(piperidin-3-yl)benzamido)-N-methylisoquinoline-6-carboxamide], the half-inhibitory concentration (IC50) amounted to 230 nM.
Take `CC(C)NC(=O)c1cccc(-c2cc3c(N(C(=O)c4ccc(-c5cn(C)nn5)cc4F)[C@@H]4CCCNC4)nccc3s2)c1` [Example 539, 2-fluoro-N-[2-[3-(isopropylcarbamoyl)phenyl]thieno[3,2-c]pyridin-4-yl]-4-(1-methyltriazol-4-yl)-N-[(3R)-3-piperidyl]benzamide]: the IC50 is 630 nM.
For `C=CC(=O)Nc1cccc(-c2cc3c(N(C(=O)c4ccc(-c5cn(C)nn5)cc4F)[C@@H]4CCCNC4)nccc3s2)c1` [Example 532, 2-fluoro-4-(1-methyltriazol-4-yl)-N-[(3R)-3-piperidyl]-N-[2-[3-(prop-2-enoylamino)phenyl]thieno[3,2-c]pyridin-4-yl]benzamide], the IC50 came out at 1800 nM.
With `O=C(c1ccc(-n2nnc3cccnc32)cc1F)N(c1nccc2sc(-c3nc4ccccn4n3)cc12)[C@@H]1CCCNC1` [Example 450, 2-fluoro-N-[(3R)-3-piperidyl]-N-[2-([1,2,4]triazolo[1,5-a]pyridin-2-yl)thieno[3,2-c]pyridin-4-yl]-4-(triazolo[4,5-b]pyridin-3-yl)benzamide], the IC50 stood at 300 nM.
As to `Cn1cc(-c2ccc(C(=O)N(c3nccc4sc(-c5cnn(Cc6cccnc6)c5)cc34)[C@@H]3CCCNC3)c(F)c2)nn1` [Example 485, 2-fluoro-4-(1-methyltriazol-4-yl)-N-[(3R)-3-piperidyl]-N-[2-[1-(3-pyridylmethyl)pyrazol-4-yl]thieno [3,2-c]pyridin-4-yl] benzamide], the IC50 was 980 nM.
On to `COc1cc(C)c2c(N(C(=O)c3ccc(-c4nc(C)no4)cc3)[C@@H]3CCCNC3)nccc2c1` [Example 914, N-(6-methoxy-8-methyl-1-isoquinolyl)-4-(3-methyl-1,2,4-oxadiazol-5-yl)-N-[(3R)-3-piperidyl] benzamide], for which the IC50 was 130 nM.
Take `Cc1cccc2ccnc(N(C(=O)N3CCCC(CCC(=O)Nc4ccncc4)C3)[C@@H]3CCCNC3)c12` (stereo partly drawn) [Example 497, N-(8-methylisoquinolin-1-yl)-3-(3-oxo-3-(pyridin-4-ylamino)propyl)-N—((R)-piperidin-3-yl)piperidine-1-carboxamide]: the IC50 was 2000 nM.
As to `CC(C)(O)C#Cc1ccc2c(N(C(=O)c3ccc(-n4nnc5cccnc54)cc3F)[C@@H]3CCCNC3)nccc2c1` [Example 586, (R)-4-(3H-[1,2,3]triazolo[4,5-b]pyridin-3-yl)-2-fluoro-N-(6-(3-hydroxy-3-methylbut-1-yn-1-yl)isoquinolin-1-yl)-N-(piperidin-3-yl)benzamide], the IC50 amounted to 310 nM.
On to `Cn1cc(-c2ccc(C(=O)N(c3nccc4sc(C#CCO)cc34)[C@@H]3CCCNC3)c(F)c2)nn1` [Example 479, (R)-2-fluoro-N-(2-(3-hydroxyprop-1-yn-1-yl)thieno[3,2-c]pyridin-4-yl)-4-(1-methyl-1H-1,2,3-triazol-4-yl)-N-(piperidin-3-yl)benzamide], for which the IC50 turned out to be 3200 nM.
With `Cn1cc(-c2ccc(C(=O)N(c3nccc4sc(-c5ccc(S(=O)(=O)NCCN)cc5)cc34)[C@@H]3CCCNC3)c(F)c2)nn1` [Example 536, N-[2-[4-(2-aminoethylsulfamoyl)phenyl]thieno[3,2-c]pyridin-4-yl]-2-fluoro-4-(1-methyltriazol-4-yl)-N-[(3R)-3-piperidyl] benzamide], the IC50 is above 10000 nM.
Regarding `CS(=O)(=O)c1cccc(-c2cc3c(N(C(=O)c4ccc(-n5nnc6cccnc65)cc4F)[C@@H]4CCCNC4)nccc3s2)c1` [Example 419, 2-fluoro-N-[2-(3-methylsulfonylphenyl)thieno[3,2-c]pyridin-4-yl]-N-[(3R)-3-piperidyl]-4-(triazolo[4,5-b]pyridin-3-yl)benzamide], the IC50 turned out to be 200 nM.
